Data taken from patent US9000012B2 (priority 2009, dated 2015).
Like-named read-outs stand apart in the source and are kept apart here.

Assays:
[1] = logP of the compounds of table 1; assay type: physicochemical
Phytophthora infestans = assay type: in vivo, Phytophthora infestans on tomato; details: preventive spray on young tomato plants, 500 ppm of active ingredient, inoculated one day after treatment, evaluated 7 days after inoculation; 0% = untreated control, 100% = no disease
[2] = logP of the compounds of table 1; assay type: physicochemical; remark: listed apart in the source

COc1ccc(CC(=O)Nc2nc(CON=C(C(=O)N(C)C)c3ccccc3)cs2)cc1 [compound 131]
logP [1]: 2.88

CCCCCOC(=O)Nc1cccc(CON=C(C(=O)N(C)C)c2ccccc2)n1 [Example 99]
logP [1]: 3.96
Efficacy (Phytophthora infestans): 95%

C#CCCOC(=O)Nc1cccc(CON=C(C(=O)N(C)CC)c2ccccc2)n1 [compound 143]
logP [1]: 3.04

CCON(C)C(=O)C(=NOCc1cccc(NC(=O)OC(C)(C)C)n1)c1ccccc1 [compound 201]
logP [2]: 2.38

CNC(=O)C(=NOCc1cccc(NCCCc2ccccc2)n1)c1ccccc1 [compound 79]
logP [1]: 1.94

COC(=O)C(=NOCc1cccc(NCCCc2ccccc2)n1)c1ccccc1 [compound 41]
logP [1]: 2.60

CC(C)(C)OC(=O)Nc1cccc(CON=C(C#N)c2ccccc2)n1 [compound 1]
logP [1]: 4.64

COC(=O)C(=NOCc1cccc(NC(=O)OC(C)(C)C)n1)c1ccccc1 [compound 26]
logP [1]: 4.20

CCCCCOC(=O)Nc1cccc(CON=C(C(=O)NC)c2ccc(Oc3ccccc3)cc2)n1 [compound 65]
logP [1]: 2.64

CC(Oc1ccccc1)C(=O)Nc1nc(CON=C(C(=O)N(C)C)c2ccccc2)cs1 (centres unmarked) [Example 130]
logP [1]: 3.21
Efficacy (Phytophthora infestans): 100%

C#CCCCCOC(=O)Nc1cccc(CON=C(C(=O)N(C)OCC)c2ccccc2)n1 [compound 202]
logP [2]: 3.71

CCN(C)C(=O)C(=NOCc1cccc(NC(=O)C(C)Oc2ccccc2)n1)c1ccccc1 (centres unmarked) [compound 136]
logP [1]: 3.78

CNC(=O)C(=NOCc1cccc(NCCC2CCCCC2)n1)c1ccccc1 [compound 82]
logP [1]: 2.23

CCN(C)C(=O)C(=NOCc1cccc(NC(=O)OC(C)(C)C)n1)c1ccccc1 [compound 142]
logP [1]: 3.72

CCON(C)C(=O)C(=NOCc1cccc(NC(=O)C(C)Oc2ccccc2)n1)c1ccccc1 (centres unmarked) [compound 205]
logP [2]: 3.94

CCN(C)C(=O)C(=NOCc1cccc(NC(=O)OCCOc2ccccc2)n1)c1ccccc1 [compound 141]
logP [1]: 3.76

CCON(C)C(=O)C(=NOCc1cccc(NC(=O)C2COc3ccccc3O2)n1)c1ccccc1 (centres unmarked) [compound 203]
logP [2]: 3.83

CCON(C)C(=O)C(=NOCc1cccc(NC(=O)Cc2ccc(OC)cc2)n1)c1ccccc1 [compound 206]
logP [2]: 3.37

C#CCCOC(=O)Nc1cccc(CON=C(C(=O)N(C)C)c2ccccc2)n1 [Example 100]
logP [1]: 1.83
Efficacy (Phytophthora infestans): 70%

C#CCCOC(=O)Nc1cccc(CON=C(C(=N)N(C)N)c2ccccc2)n1 [compound 308]
logP [2]: 1.77

CCN(C)C(=O)C(=NOCc1cccc(NC(=O)C2COc3ccccc3O2)n1)c1ccccc1 (centres unmarked) [compound 139]
logP [1]: 3.69

CC#CCOC(=O)Nc1cccc(CON=C(C(=O)OC)c2ccccc2)n1 [compound 45]
logP [1]: 3.67

COC(=O)C(=NOCc1cccc(NC(=O)C2COc3ccccc3O2)n1)c1ccccc1 (centres unmarked) [compound 37]
logP [1]: 4.16

C#CCCCCOC(=O)Nc1nc(CON=C(C(=O)N(C)C)c2ccccc2)cs1 [compound 122]
logP [1]: 3.06

COc1ccc(OC(=O)Nc2cccc(CON=C(C(=O)N(C)C)c3ccccc3)n2)cc1 [compound 117]
logP [1]: 3.25

CC(Oc1ccccc1)C(=O)Nc1cccc(CON=C(C(=O)N(C)C)c2ccccc2)n1 (centres unmarked) [Example 111]
logP [1]: 3.50
Efficacy (Phytophthora infestans): 92%

C=CCCOC(=O)Nc1cccc(CON=C(C(=O)N(C)C)c2ccccc2)n1 [compound 116]
logP [1]: 3.19

CNC(=O)C(=NOCc1cccc(NC(=O)OC(C)(C)C)n1)c1ccccc1 [compound 62]
logP [1]: 2.88

C#CCCOC(=O)Nc1cccc(CON=C(C(=N)SC)c2ccccc2)n1 [compound 309]
logP [2]: 3.02

CCCCCOC(=O)Nc1cccc(CON=C(C(=O)OC)c2ccccc2)n1 [compound 27]
logP [1]: 3.69

CN(C)C(=O)C(=NOCc1cccc(NC(=O)c2ccc(Cl)cc2)n1)c1ccccc1 [compound 114]
logP [1]: 3.57

CCCCCCOC(=O)Nc1cccc(CON=C(C(=O)NC)c2ccccc2)n1 [compound 84]
logP [1]: 3.48

CCCCCCOC(=O)Nc1cccc(CON=C(C(=O)OC)c2ccccc2)n1 [compound 46]
logP [1]: 5.14

CCN(C)C(=O)C(=NOCc1cccc(NC(=O)c2ccc(Cl)cc2)n1)c1ccccc1 [compound 140]
logP [1]: 3.85

CCN(C)C(=O)C(=NOCc1csc(NC(=O)OCCOc2ccccc2)n1)c1ccccc1 [compound 151]
logP [1]: 3.48

CCON(C)C(=O)C(=NOCc1csc(NC(=O)OCCOc2ccccc2)n1)c1ccccc1 [compound 209]
logP [2]: 3.62

C=CCCOC(=O)Nc1cccc(CON=C(C(=O)OC)c2ccccc2)n1 [compound 42]
logP [1]: 3.94

CCN(C)C(=O)C(=NOCc1csc(NC(=O)C2COc3ccccc3O2)n1)c1ccccc1 (centres unmarked) [compound 149]
logP [1]: 3.39

CN(C)C(=O)C(=NOCc1cccc(NC(=O)OCCOc2ccccc2)n1)c1ccccc1 [compound 115]
logP [1]: 3.48

C#CCCCCOC(=O)Nc1nc(CON=C(C(=O)N(C)CC)c2ccccc2)cs1 [compound 148]
logP [1]: 3.29

COC(=O)C(=NOCc1cccc(N)n1)c1ccccc1 [compound 25]
logP [1]: 1.32

COC(=O)C(=NOCc1cccc(NC(=O)c2cccc(F)c2)n1)c1ccccc1 [compound 40]
logP [1]: 3.94

CNC(=O)C(=NOCc1cccc(NC(=O)C(F)(F)Oc2ccccc2)n1)c1ccccc1 [compound 76]
logP [1]: 3.35

C#CCC(C)OC(=O)Nc1cccc(CON=C(C(=O)N(C)CC)c2ccccc2)n1 (centres unmarked) [compound 135]
logP [1]: 3.31

CCN(C)C(=O)C(=NOCc1csc(NC(=O)Cc2ccc(OC)cc2)n1)c1ccccc1 [compound 147]
logP [1]: 3.09

CC#CCOC(=O)Nc1cccc(CON=C(C(=O)NC)c2ccccc2)n1 [compound 83]
logP [1]: 2.59

CNC(=O)C(=NOCc1cccc(N)n1)c1ccccc1 [compound 60]
logP [1]: 0.65

C#CCCOC(=O)Nc1nc(CON=C(C(=O)N(C)C)c2ccccc2)cs1 [compound 120]
logP [1]: 2.84

CNC(=O)C(=NOCc1cccc(N)n1)c1ccc(OCc2ccccc2)cc1 [compound 61]
logP [1]: 1.17

C#CCCOC(=O)Nc1cccc(CON=C(C#N)c2ccccc2)n1 (single isomer, unassigned) [Example 3, but-3-yn-1-yl{6-[({[cyano(phenyl)methylene]amino}oxy)methyl]pyridin-2-yl}carbamate]
logP ([1]; read-out: logP): 3.67

C=CCCOC(=O)Nc1cccc(CON=C(C(=O)NC)c2ccccc2)n1 [compound 80]
logP [1]: 2.77

CCON(C)C(=O)C(=NOCc1csc(NC(=O)Cc2ccc(OC)cc2)n1)c1ccccc1 [compound 210]
logP [2]: 3.23

C#CCCCCOC(=O)Nc1nc(CON=C(C(=O)N(C)OCC)c2ccccc2)cs1 [compound 211]
logP [2]: 3.44

C#CCC(C)OC(=O)Nc1nc(CON=C(C(=O)N(C)C)c2ccccc2)cs1 (centres unmarked) [compound 121]
logP [1]: 2.84

C#CCCOC(=O)Nc1nc(CON=C(C(=O)N(C)CC)c2ccccc2)cs1 [compound 152]
logP [1]: 2.80

CCN(C)C(=O)C(=NOCc1csc(NC(=O)c2ccc(Cl)cc2)n1)c1ccccc1 [compound 150]
logP [1]: 3.69

CNC(=O)C(=NOCc1cccc(NC(=O)Cc2ccc(OC)cc2)n1)c1ccccc1 [compound 77]
logP [1]: 2.66

CCN(C)C(=O)C(=NOCc1cccc(NC(=O)Cc2ccc(OC)cc2)n1)c1ccccc1 [compound 137]
logP [1]: 3.23

COc1ccc(C(=O)Nc2nc(CON=C(C(=O)N(C)C)c3ccccc3)cs2)cc1 [compound 134]
logP [1]: 2.84

C#CCCOC(=O)Nc1cccc(CON=C(C(N)=S)c2ccccc2)n1 [compound 310]
logP [2]: 2.75

CNC(=O)C(=NOCc1cccc(NC(=O)c2cccc(F)c2)n1)c1ccccc1 [compound 78]
logP [1]: 2.84

CCON(C)C(=O)C(=NOCc1cccc(NC(=O)OCCOc2ccccc2)n1)c1ccccc1 [compound 207]
logP [2]: 3.89

CN(C)C(=O)C(=NOCc1cccc(NC(=O)c2cccc(F)c2)n1)c1ccccc1 [compound 113]
logP [1]: 3.23

CCON(C)C(=O)C(=NOCc1csc(N)n1)c1ccccc1 [compound 208]
logP [2]: 1.35

C#CCCCCOC(=O)Nc1cccc(CON=C(C(=O)N(C)CC)c2ccccc2)n1 [compound 138]
logP [1]: 3.35

COC(=O)C(=NOCc1cccc(NCCC2CCCCC2)n1)c1ccccc1 [compound 44]
logP [1]: 3.04

COC(=O)C(=NOCc1cccc(NC(=O)Cc2ccc(OC)cc2)n1)c1ccccc1 [compound 39]
logP [1]: 3.69

COC(=O)C(=NOCc1cccc(NC(=O)C(F)(F)Oc2ccccc2)n1)c1ccccc1 [compound 38]
logP [1]: 4.41

CCN(C)C(=O)C(=NOCc1csc(NC(=O)C(C)Oc2ccccc2)n1)c1ccccc1 (centres unmarked) [compound 146]
logP [1]: 3.48

CCCCCOC(=O)Nc1cccc(CON=C(C(=O)NC)c2ccc(OCc3ccccc3)cc2)n1 [compound 64]
logP [1]: 2.65

C#CCC(C)OC(=O)Nc1nc(CON=C(C(=O)N(C)CC)c2ccccc2)cs1 (centres unmarked) [compound 145]
logP [1]: 3.09

C#CCCOC(=O)Nc1cccc(CON=C(C(=O)OC)c2ccccc2)n1 [compound 28]
logP [1]: 3.48

CNC(=O)C(=NOCc1cccc(NC(=O)c2cccs2)n1)c1ccccc1 [compound 81]
logP [1]: 2.57

CN(C)C(=O)C(=NOCc1csc(NC(=O)c2ccc(Cl)cc2)n1)c1ccccc1 [compound 132]
logP [1]: 3.41

CCON(C)C(=O)C(=NOCc1cccc(NC(=O)c2ccc(Cl)cc2)n1)c1ccccc1 [compound 204]
logP [2]: 4.01

COC(=O)C(=NOCc1cccc(NC(=O)c2cccs2)n1)c1ccccc1 [compound 43]
logP [1]: 3.67

CN(C)C(=O)C(=NOCc1cccc(N)n1)c1ccccc1 [compound 97]
logP [1]: 1.10

CCN(C)C(=O)C(=NOCc1csc(N)n1)c1ccccc1 [compound 144]
logP [1]: 1.34

CN(C)C(=O)C(=NOCc1csc(NC(=O)OCCOc2ccccc2)n1)c1ccccc1 [compound 133]
logP [1]: 3.27
